This assay concerns the target BTK (Homo sapiens (Human), UniProt Q06187). As to the kind of experiment: Btk in vitro inhibitory activity (one of Method A TR-FRET, Method B electrophoretic mobility shift, Method C radiometric filter binding). In kind it is biochemical. On the technique in general: In EMSA bound probe runs differently from free probe, usually more slowly.
[1] abbreviates: determined using one of the methods of Example 355a, 355b and 355c, read-out: BTK IC50.

Like-named read-outs stand apart in the source and are kept apart here. Some results are limits rather than exact numbers.

BTK, sequence (Q06187 whole entry): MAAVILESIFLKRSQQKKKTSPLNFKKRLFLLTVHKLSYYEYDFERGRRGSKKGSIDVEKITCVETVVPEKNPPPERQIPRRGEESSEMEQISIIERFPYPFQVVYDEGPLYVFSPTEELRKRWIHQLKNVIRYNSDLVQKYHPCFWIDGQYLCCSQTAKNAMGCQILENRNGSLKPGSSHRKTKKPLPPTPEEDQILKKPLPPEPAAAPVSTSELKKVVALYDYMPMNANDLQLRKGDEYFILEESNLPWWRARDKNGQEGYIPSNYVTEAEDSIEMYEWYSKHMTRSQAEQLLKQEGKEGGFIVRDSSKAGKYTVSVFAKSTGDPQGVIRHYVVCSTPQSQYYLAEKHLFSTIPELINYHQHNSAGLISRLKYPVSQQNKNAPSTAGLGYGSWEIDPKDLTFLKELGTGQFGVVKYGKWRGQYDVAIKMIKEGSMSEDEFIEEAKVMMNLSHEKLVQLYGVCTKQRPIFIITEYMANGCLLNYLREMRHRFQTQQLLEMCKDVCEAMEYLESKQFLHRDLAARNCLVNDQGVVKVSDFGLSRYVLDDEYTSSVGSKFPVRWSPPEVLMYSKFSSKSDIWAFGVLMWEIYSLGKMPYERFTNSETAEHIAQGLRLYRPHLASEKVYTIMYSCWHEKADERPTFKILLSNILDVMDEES

In general, IC50 refers to the midpoint of a concentration-inhibition curve. Consider `C[C@@H]1[C@H](NC(=O)N(C)C)CCCN1c1cnc(C(N)=O)c(Nc2ccc(C3CCN(C4CCC4)CC3)cc2)n1` [Example 238, 3-(4-(1-cyclobutylpiperidin-4-yl)phenylamino)-5-((2R,3R)-3-(3,3-dimethylureido)-2-methylpiperidin-1-yl)pyrazine-2-carboxamide], for which the IC50 runs as follows: under setting [1], less than 10 nM; (read-out: Btk (IC50)) less than 10 nM.
Consider `CC(C)Oc1ccc(C(=O)N[C@@H]2CCCN(c3nnc(C(N)=O)c(Nc4ccc(C(=O)N5CCOCC5)cc4)n3)C2)cc1` [Example 90, (R)-5-(4-(morpholine-4-carbonyl)phenylamino)-3-(3-(4-isopropoxybenzamido)piperidin-1-yl)-1,2,4-triazine-6-carboxamide], for which the IC50 is, setting by setting: under setting [1], 10 to 100 nM; (read-out: Btk (IC50)) 10 to 100 nM.
For the molecule `COc1ccc(C(=O)N[C@@H]2CCCN(c3nnc(C(N)=O)c(Nc4ccc(C5CCNCC5)cc4)n3)C2)cc1` [Example 333, (R)-3-(3-(4-methoxybenzamido)piperidin-1-yl)-5-(4-(piperidin-4-yl)phenylamino)-1,2,4-triazine-6-carboxamide], the IC50 under setting [1] is less than 10 nM.
In the case of `Cc1ccc(Nc2nc(N3CCC[C@@H](NC(=O)c4ccc(C(C)(C)C)cc4)C3)nnc2C(N)=O)cc1` [Example 53, (R)-3-(3-(4-tert-butylbenzamido)piperidin-1-yl)-5-(p-tolylamino)-1,2,4-triazine-6-carboxamide], the IC50 under setting [1] is 1000 to 10000 nM.
`C[C@@H]1[C@H](NC(=O)N(C)C)CCCN1c1cnc(C(N)=O)c(Nc2ccc(C3(C#N)CCCC3)cc2)n1` [Example 248, 3-(4-(1-cyanocyclopentyl)phenylamino)-5-((2R,3R)-3-(3,3-dimethylureido)-2-methylpiperidin-1-yl)pyrazine-2-carboxamide]: the IC50 is, setting by setting: under setting [1], less than 10 nM; (read-out: Btk (IC50)) less than 10 nM.
Regarding `C[C@@H]1[C@H](N2CCN(C)C2=O)CCCN1c1cnc(C(N)=O)c(Nc2ccc(C3(C)CCNCC3)cc2)n1` [Example 252, 5-((2R,3R)-2-methyl-3-(3-methyl-2-oxoimidazolidin-1-yl)piperidin-1-yl)-3-(4-(4-methylpiperidin-4-yl)phenylamino)pyrazine-2-carboxamide], the IC50 is less than 10 nM (Btk (IC50)) and less than 10 nM under setting [1].
As for `COc1ccc(C(=O)N[C@@H]2CCCN(c3cnc(C(N)=O)c(Nc4ccc(N5CCOCC5)nc4)n3)C2)cc1` [Example 124, (R)-5-(3-(4-methoxybenzamido)piperidin-1-yl)-3-(6-morpholinopyridin-3-ylamino)pyrazine-2-carboxamide], the IC50 lay within 10 to 100 nM. The IC50 under setting [1] is less than 10 nM.
`CC1(c2ccc(Nc3nc(N4CCC[C@@H](N5CCN(C6CC6)C5=O)C4)cnc3C(N)=O)cc2)CCN(C2CC2)CC1` [Example 279, (R)-5-(3-(3-cyclopropyl-2-oxoimidazolidin-1-yl)piperidin-1-yl)-3-(4-(1-cyclopropyl-4-methylpiperidin-4-yl)phenylamino)pyrazine-2-carboxamide]: the IC50 (read-out: Btk (IC50)) is less than 10 nM.
`C[C@@H]1[C@H](NC(=O)N(C)C)CCCN1c1cnc(C(N)=O)c(Nc2ccc(C3CCN(C4CCCC4)CC3)cc2)n1` [Example 232, 3-(4-(1-cyclopentylpiperidin-4-yl)phenylamino)-5-((2R,3R)-3-(3,3-dimethylureido)-2-methylpiperidin-1-yl)pyrazine-2-carboxamide]: the IC50 under setting [1] is less than 10 nM and the 50% inhibitory concentration (IC50) (read-out: Btk (IC50)) was less than 10 nM.
Take `CN1CCCN([C@@H]2CCCN(c3cnc(C(N)=O)c(Nc4ccc(C5(C)CCN(C6CCCC6)CC5)cc4)n3)C2)C1=O` [Example 283, (R)-3-(4-(1-cyclopentyl-4-methylpiperidin-4-yl)phenylamino)-5-(3-(3-methyl-2-oxotetrahydropyrimidin-1(2H)-yl)piperidin-1-yl)pyrazine-2-carboxamide]: the IC50 is less than 10 nM under setting [1] and less than 10 nM (read-out: Btk (IC50)).
Regarding `CC(C)(C)c1ccc(C(=O)N[C@@H]2CCCN(c3nnc(C(N)=O)c(Nc4ccc(-c5ncccn5)cc4)n3)C2)cc1` [Example 56, (R)-3-(3-(4-tert-butylbenzamido)piperidin-1-yl)-5-(4-(pyrimidin-2-yl)phenylamino)-1,2,4-triazine-6-carboxamide], the IC50 under setting [1] was in the range of 100 to 1000 nM.
Take `CS(=O)(=O)N[C@@H]1CCCN(c2cnc(C(N)=O)c(Nc3ccc(C4CCN(C5CCCC5)CC4)cc3)n2)C1` [Example 300, (R)-3-(4-(1-cyclopentylpiperidin-4-yl)phenylamino)-5-(3-(methylsulfonamido)piperidin-1-yl)pyrazine-2-carboxamide]: the IC50 is, setting by setting: (Btk (IC50)) 10 to 100 nM; under setting [1], 10 to 100 nM.
Consider `CN(C)C(=O)N[C@@H]1CCCN(c2cnc(C(N)=O)c(Nc3cnn(C4CCN(C5CCCC5)CC4)c3)n2)C1` [Example 218, (R)-3-(1-(1-cyclopentylpiperidin-4-yl)-1H-pyrazol-4-ylamino)-5-(3-(3,3-dimethylureido)piperidin-1-yl)pyrazine-2-carboxamide], for which the IC50 under setting [1] is less than 10 nM.
Regarding `NC(=O)c1ncc(N2CCC[C@@H](NC(=O)c3ccc(-c4ccccc4)cc3)C2)nc1Nc1ccc(C2CCN(C3CC3)CC2)cc1` [Example 318, (R)-5-(3-biphenyl-4-ylcarboxamidopiperidin-1-yl)-3-(4-(1-cyclopropylpiperidin-4-yl)phenylamino)pyrazine-2-carboxamide], the IC50 under setting [1] lay in the range of 10 to 100 nM.
As to `NC(=O)c1ncc(N2CCC[C@@H](NC(=O)N3CCCCC3)C2)nc1Nc1ccc(C2CCN(C=O)CC2)cc1` [Example 148, (R)-3-(4-(1-formylpiperidin-4-yl)phenylamino)-5-(3-(piperidine-1-carboxamido)piperidin-1-yl)pyrazine-2-carboxamide], the IC50 reads like this: under setting [1], less than 10 nM; (read-out: Btk (IC50)) less than 10 nM.
Turning to `COCCOc1ccc(Nc2nc(N3CCC[C@@H](NC(=O)N[C@@H](C)c4ccccc4)C3)cnc2C(N)=O)cc1` [Example 346, 3-(4-(2-methoxyethoxy)phenylamino)-5-((R)-3-(3-((S)-1-phenylethyl)ureido)piperidin-1-yl)pyrazine-2-carboxamide], under setting [1], the IC50 was 10 to 100 nM.
On to `COc1ccc(C(=O)N[C@@H]2CCCN(c3cnc(C(N)=O)c(Nc4ccc(N5CCOCC5=O)cc4)n3)C2)cc1` [Example 126, (R)-5-(3-(4-methoxybenzamido)piperidin-1-yl)-3-(4-(3-oxomorpholino)phenylamino)pyrazine-2-carboxamide], for which the IC50 is 10 to 100 nM. The IC50 under setting [1] is less than 10 nM.
Turning to `CN(C)C(=O)N1CC[C@@H]2[C@H]1CCCN2c1cnc(C(N)=O)c(Nc2ccc(C3CCN(C4CCCC4)CC3)cc2)n1` (racemic) [Example 287, (3aR,7aR)-4-(5-carbamoyl-6-(4-(1-cyclopentylpiperidin-4-yl)phenylamino)pyrazin-2-yl)-N,N-dimethyloctahydro-1H-pyrrolo[3,2-b]pyridine-1-carboxamide], the IC50 was in the range of 10 to 100 nM under setting [1] and 10 to 100 nM (read-out: Btk (IC50)).
For `CCOc1ccc(C(=O)N[C@@H]2CCCN(c3nnc(C(N)=O)c(Nc4ccc(C(=O)N5CCOCC5)cc4)n3)C2)cc1` [Example 88, (R)-3-(3-(4-ethoxybenzamido)piperidin-1-yl)-5-(4-(morpholine-4-carbonyl)phenylamino)-1,2,4-triazine-6-carboxamide], the IC50 by setting is: under setting [1], less than 10 nM; (read-out: Btk (IC50)) less than 10 nM.
For the molecule `NC(=O)c1ncc(N2CC[C@H]3CCN(C(=O)C4CC4)[C@H]3C2)nc1Nc1ccc(C2CCN(C3CCCC3)CC2)cc1` (racemic) [Example 293, 3-(4-(1-cyclopentylpiperidin-4-yl)phenylamino)-5-((3aS,7aR)-1-(cyclopropanecarbonyl)tetrahydro-1H-pyrrolo[2,3-c]pyridin-6(2H,7H,7aH)-yl)pyrazine-2-carboxamide], the IC50 runs as follows: under setting [1], 10 to 100 nM; (read-out: Btk (IC50)) 10 to 100 nM.
Turning to `NC(=O)c1nnc(N2CCC[C@@H](NC(=O)c3nccs3)C2)nc1Nc1ccc(C(=O)N2CCOCC2)cc1` [Example 16, (R)—N-(1-(6-carbamoyl-5-(4-(morpholine-4-carbonyl)phenylamino)-1,2,4-triazin-3-yl)piperidin-3-yl)thiazole-2-carboxamide], under setting [1], the IC50 was less than 10 nM.
Still for that read-out and setting: under `CN(C)C/C=C/C(=O)N1CCC[C@@H](Nc2nnc(C(N)=O)c(Nc3ccc(C(=O)N4CCOCC4)cc3)n2)C1` [Example 66, (R,E)-3-(1-(4-(dimethylamino)but-2-enoyl)piperidin-3-ylamino)-5-(4-(morpholine-4-carbonyl)phenylamino)-1,2,4-triazine-6-carboxamide] stands less than 10 nM.
Regarding `CN1CCN([C@@H]2CCCN(c3cnc(C(N)=O)c(Nc4ccc(C5(C#N)CCN(C6CCCC6)CC5)cc4)n3)C2)C1=O` [Example 271, (R)-3-(4-(4-cyano-1-cyclopentylpiperidin-4-yl)phenylamino)-5-(3-(3-methyl-2-oxoimidazolidin-1-yl)piperidin-1-yl)pyrazine-2-carboxamide], the concentration for half-maximal inhibition (IC50) (read-out: Btk (IC50)) was less than 10 nM.
Take `CN(C)C(=O)N[C@@H]1CCCN(c2cnc(C(N)=O)c(Nc3ccc(C4CCN(c5ccccn5)CC4)cc3)n2)C1` [Example 174, (R)-5-(3-(3,3-dimethylureido)piperidin-1-yl)-3-(4-(1-(pyridin-2-yl)piperidin-4-yl)phenylamino)pyrazine-2-carboxamide]: the IC50 lay in the range of 10 to 100 nM under setting [1] and 10 to 100 nM (read-out: Btk (IC50)).
`NC(=O)c1ncc(N2CCC[C@@H](NC(=O)c3ccc(F)cc3)C2)nc1Nc1ccc(C2CCN(C3CCCC3)CC2)cc1` [Example 320, (R)-3-(4-(1-cyclopentylpiperidin-4-yl)phenylamino)-5-(3-(4-fluorobenzamido)piperidin-1-yl)pyrazine-2-carboxamide]: the IC50 is, setting by setting: under setting [1], less than 10 nM; (read-out: Btk (IC50)) less than 10 nM.
Regarding `CC(C)Oc1ccc(Nc2nc(N3CCC[C@@H](NC(=O)N(C)C)[C@H]3C)cnc2C(N)=O)cc1` [Example 243, 5-((2R,3R)-3-(3,3-dimethylureido)-2-methylpiperidin-1-yl)-3-(4-isopropoxyphenylamino)pyrazine-2-carboxamide], under setting [1], the IC50 is less than 10 nM.
Regarding `CCC(=O)N1CCC(c2ccc(Nc3nc(N4CCC[C@@H](NC(=O)N5CCCCC5)C4)cnc3C(N)=O)cc2)CC1` [Example 149, (R)-5-(3-(piperidine-1-carboxamido)piperidin-1-yl)-3-(4-(1-propionylpiperidin-4-yl)phenylamino)pyrazine-2-carboxamide], the IC50 reads like this: (Btk (IC50)) 10 to 100 nM; under setting [1], 10 to 100 nM.

The values are drawn from patent US9656988B2 (Pharmacyclics LLC, priority 2013, dated 2017).
